US20160008431A1, “Tumor Therapy With Antitumor Agents In Combination With Sindbis Virus-Based Vectors” (priority 2008, published 2016)
“Also recorded” adds a separate entry of the source.

Columns and labels:
[1] = tested on: ES2/Fluc tumors; experiment: Sindbis+CPT-11 ES2/Fluc tumor survival experiment; type: in vivo, Es1^c/SCID mice; conditions: untreated mice survived about 4 weeks; i.p. treatment 4 times a week for 5 weeks from day 5
Protocol: FIGS. 1A and 1B: Survival of tumor-bearing mice treated with Sindbis+CPT-11. (A) Mice were injected with 1.5×10^6 ES2/Fluc cells on day 0. Mice were then divided into 4 groups of 10. Treatment started on day 5, and lasted for 5 weeks, in which mice were treated 4 times a week. Mice treated with Sindbis/LacZ received I.P. injection of ˜10^7 plaque-forming units of the vector in 0.5 mL OptiMEM; mice treated with CPT-11 received I.P. injections of 15 mg/kg body weight of the recipient of CPT-11 in […]. Mice treated with the combined treatments were treated with Sindbis/LacZ and CPT-11 on the same day (Sindbis/LacZ in the morning, and CPT-11 in the evening). […] The experiment was repeated twice (for a total of 20 mice per group), and the results were combined into one graph. (B) Tumor load in mice treated with Sindbis/LacZ+CPT-11. On day 4 after injecting the mice with 10 million ES2/Fluc cells, tumors developed in various IP locations (top). […]
C.B-17 SCID mice (Taconic, Germantown, N.Y.) were bred with a plasma esterase deficient mouse model—Es1^c Foxn1^nu/J (Jackson laboratory, Bar Harbor, Me.). […] Briefly, blood was collected from F2 mice, and was tested by FACS analysis to determine T and B cell levels, and the plasma esterase activity was measured using a nitrophenyl acetate assay (Spectrum, Gardena, Calif.). […]

[2] = tested on: luciferase-expressing Mia Paca cells; experiment: Mia Paca pancreatic cancer model, Sindbis vectors with and without CPT-11; type: in vivo, Es1/SCID mice; conditions: treated 4 times a week for 2 weeks; images since day 18
Protocol: FIG. 3 is a graph showing the effect of Sindbis virus vectors with and without CPT-11 treatment on pancreatic cancer in Mia Paca mice, a model for pancreatic cancer.
Female Es1/SCID mice were inoculated intraperitoneally with 5 million luciferase-expressing Mia Paca cells (a model for pancreatic cancer) on day 0. Mice were then divided into 4 groups: Mock (untreated), Sindbis/LacZ treated, CPT-11 treated, and Sindbis/LacZ+CPT-11 treated. The mice were treated 4 times a week, for 2 weeks, and then the treatment was stopped.

[3] = in human; cited from earlier work
[4] = tested on: s.c. N2a tumors; experiment: s.c. N2a neuroblastoma model: vascular leakiness, vector transduction, tumor growth; type: in vivo, SCID mice; conditions: for tumor vascular permeability / leakiness (AngioSense signals): metronomic i.p. Paclitaxel 16 mg/Kg or Cisplatin 4 mg/Kg
Excerpt: FIG. 7A-7D. […] We used 1:1 RD-Sindbis/LacZ:RC-Sindbis/Fluc mixture as a control. AngioSense® 750 (0.66 nmol) was i.v. injected on day 1. […] B, quantitative presentation of luciferase signals in tumors. C and D, quantitative presentation of AngioSense® signals of tumors receiving indicated treatments.
A, relative growth curves of s.c. N2a tumors treated with Paclitaxel alone (Taxol®) or untreated (Ctrl). B, relative tumor growth curves of different treatment groups as in FIG. 5.
FIG. 9A-9C. […] Starting on day 0, daily treatments of Cisplatin (4 mg/Kg or 12 mg/m^2 compared with maximum tolerated dose of 100 mg/m^2 in humans) were i.p. injected into SCID mice bearing s.c. N2a tumors. One last Cisplatin treatment was administrated on day 4. A, to visualize vascular leakiness, AngioSense® 750 (0.66 nmol) was i.v. injected on day 1 and imaged on day 2. B, RC-Sindbis/Fluc was i.v. injected on day 0 and day 2. Luciferase activities in tumors that indicated active vector propagation were monitored on day 3. C, relative tumor growth curves of different treatment groups.
All animal experiments were performed in accordance with NIH and institutional guidelines. BHK cells (1.5×10^6/mouse) were s.c. inoculated into SCID mice (female, 6-8 week old, Taconic, Germantown, N.Y.). The mouse neuroblastoma tumors were induced by s.c. injection of 1.5×10^6 N2a cells into SCID mice 13 days prior to treatments. For better visualization, we remove excessive fur on the skin over the tumor and its surrounding region. The setting for dual mPlum/AngioSense imaging is as following: ex605/em660, 680 and 700 nm, followed by ex745/em800, 820 and 840 nm. Bioluminescent imaging of luciferase activities was performed as described before (7). Tumor sizes were measured using the formula: π/6×length (mm)×width (mm)^2.
In order to test whether chemotherapeutic agents synergize with Sindbis vector in tumor eradication by modulating vascular leakiness, we used a s.c. mouse N2a neuroblastoma model.
We used a replication-competent (RC) Sindbis/Fluc vector (21) instead of an RD one to further enhance the tumor transduction signal output (FIG. 7B) in N2a tumors. RC vector carries a full set of viral structural genes to support its replication. Specific tumor infection of RC vector could result in oncolytic effects by intratumoral vector replication and amplification. […] To ensure temporary expression of VEGF, we used replication defective RD-Sindbis/VEGF mixed with RC-Sindbis/Fluc (1:1).

[5] = tested on: cancer cells; experiment: Pretreatment of cancer cells with drug, susceptibility to Sindbis vector; type: cell-based; conditions: data not shown
[6] = tested on: endothelium cells; conditions: cited from earlier work
[7] = tested on: ES2/Fluc tumors; experiment: Sindbis+Taxol ES2/Fluc tumor growth and survival experiment; type: in vivo, SCID mice
Protocol: FIG. 2A-2D: Survival and tumor load in tumor-bearing mice treated with Sindbis+Taxol®. Mice were injected with 4×10^6 ES2/Fluc cells on day 0. Mice were then divided into 4 groups of 9. Mice were treated with Sindbis/LacZ (I.P.) daily from day 1 to day 11, and with Taxol® (0.4 mg/mouse) on day 3, 6 and 10. (B) Quantitative analysis of tumor growth, day 1 tumor load signal was set at 100% for each individual mouse for comparison with later images (day 3, 6, and 10). (C) Mouse survival was monitored. (D) The surviving mice were imaged on day 46 to determine if they have any tumors.
Sindbis+Taxol® ES2/Fluc tumor growth and survival experiment: Female SCID mice (8-12 weeks old) received intraperitoneal injections of 4×10^6 ES2/Fluc cells on day 0, and tumor growth was validated by imaging the mice on day 1. For quantitative analysis of tumor growth, day 1 tumor load signal was set as 100% for each individual mouse for comparison with subsequent images. Mice (nine per group) were treated with Sindbis/LacZ (I.P.) daily from day 1 to day 11, and with Taxol® (0.4 mg/mouse) on day 3, 6 and 10. Mice were imaged on days 1, 3, 6, 10, and 46. A tumor free mouse was used as a negative control.

CCc1c2c(nc3ccc(OC(=O)N4CCC(N5CCCCC5)CC4)cc13)-c1cc3c(c(=O)n1C2)COC(=O)[C@]3(O)CC [CPT-11, irinotecan]
additional survival compared with untreated mice [1]: 15 days
tumor status on images [2]: have tumors that appear to be growing

N.N.[Cl][Pt][Cl] [Cisplatin]
maximum tolerated dose [3]: 100 mg/m^2
Sindbis vector delivery and transduction (luciferase signals in tumors) ([4]; RC-Sindbis/Fluc vector): enhanced
tumor vascular permeability / leakiness (AngioSense signals) [4]: significantly increased; also recorded: enhancement in tumor vascular leakiness
therapeutic efficacy in combination with Sindbis vectors ([4]; relative tumor growth curves, FIG. 8B, 9C): better therapeutic efficacy

CC(=O)O[C@H]1C(=O)[C@@]2(C)[C@H]([C@H](OC(=O)c3ccccc3)[C@]3(O)C[C@H](OC(=O)[C@H](O)[C@@H](NC(=O)c4ccccc4)c4ccccc4)C(C)=C1C3(C)C)[C@]1(OC(C)=O)CO[C@@H]1C[C@@H]2O [Paclitaxel]
susceptibility of pretreated cancer cells to Sindbis vector [5]: does not enhance
sensitivity of endothelium cells relative to tumor cells, times more sensitive [6]: 10-100
maximum tolerated dose [3]: 175 mg/m^2
tumor vascular permeability / leakiness (AngioSense signals) [4]: significantly increased; also recorded: enhance tumor vascular leakiness
tumor growth, drug alone ([4]; relative growth curves, FIG. 8A): suppresses tumor growth
tumor level of survivors on day 46 ([7]; IVIS imaging, compared with tumor-free mouse): much higher tumor levels
tumor load / tumor growth by imaging ([7]; days 3, 6 and 10, day 1 signal set at 100%): still show tumor growth
mice surviving on day 46 ([7]; nine mice per group, treatment stopped for 35 days): one
